We go through eight molecules from ChEMBL document CHEMBL4616635, “Investigations of antiproliferative and antioxidant activity of β-lactam morpholino-1,3,5-triazine hybrids” (Bioorg Med Chem, 2020).

The subject of one experiment is MCF7. Nature of the experiment: Antiproliferative activity against human MCF7 cells assessed as inhibition of cell growth after overnight incubation by MTT assay. The class given is functional, cell-based. (Tetrazolium dyes change colour on reduction, which living cells bring about.)
A further experiment concerns HEK293. Nature of the experiment: Cytotoxicity against human HEK293 cells assessed as inhibition of cell growth after overnight incubation by MTT assay. Type of experiment: cell-based.
For the next experiment, the system named is HepG2. Nature of the experiment: Antiproliferative activity against human HepG2 cells assessed as inhibition of cell growth after overnight incubation by MTT assay. The class given is functional, cell-based.
Experiment [1] has as its system Calf thymus DNA. Nature of the experiment: Binding affinity to calf thymus DNA assessed as hypochromism by measuring red shift in absorption spectra at 68 uM after 2 mins by UV-vis spectroscopy. The class given is nucleic-acid assay. The conditions noted are these: Bos taurus.
Experiment [2] concerns Calf thymus DNA. The experiment in a line: Binding affinity to calf thymus DNA assessed as binding constant at 68 uM after 2 mins by UV-vis spectroscopy. Type of experiment: nucleic-acid assay. Conditions: Bos taurus.
A short description of experiment [3]: Antioxidant activity assessed as DPPH radical scavenging activity measured for 5 mins by UV absorbance analysis. The class given is functional. A general note: DPPH is a stable violet radical that fades when it is reduced.
The test system of another experiment is SW 1116. Nature of the experiment: Antiproliferative activity against human SW1116 cells assessed as inhibition of cell growth after overnight incubation by MTT assay. The class given is functional, cell-based.
Experiment [4] concerns Calf thymus DNA. Nature of the experiment: Binding affinity to calf thymus DNA assessed as hyperchromism by measuring blue shift in absorption spectra at 40 uM after 2 mins by UV-vis spectroscopy. The class given is nucleic-acid assay. Conditions: Bos taurus.
Experiment [5] deals with Calf thymus DNA. The experiment in a line: Binding affinity to calf thymus DNA assessed as binding constant at 40 uM after 2 mins by UV-vis spectroscopy. The conditions noted are these: Bos taurus. The class given is nucleic-acid assay.
The subject of experiment [6] is Calf thymus DNA. The experiment in a line: Binding affinity to calf thymus DNA assessed as hypochromism by measuring red shift in absorption spectra at 40 uM after 2 mins by UV-vis spectroscopy. The conditions noted are these: Bos taurus. Type of experiment: nucleic-acid assay.

≈ marks a conversion by molar mass, not a printed value.

The IC50 is the concentration that inhibits the measured activity by half. For `O=[N+]([O-])c1ccc(/C=N/c2ccc(Nc3nc(N4CCOCC4)nc(N4CCOCC4)n3)cc2)cc1`, the IC50 is more than 100 µM in the experiment with MCF7; more than 100 µM in the experiment with HEK293; more than 100 µM in the experiment on HepG2; 195 µg/mL (≈ 0.398 mM) in experiment [3]; 3.32 µM with SW 1116. The Activity in the experiment on Calf thymus DNA [1] is -4 nm. In addition, the Kb in the experiment with Calf thymus DNA [2] was 1.08 ×10⁵ /M.

`O=C1N(c2ccc(Nc3nc(N4CCOCC4)nc(N4CCOCC4)n3)cc2)C(c2ccc(Cl)cc2)C12c1ccccc1Oc1ccccc12` (stereo not drawn): the IC50 with MCF7 is more than 100 µM; with HEK293, more than 100 µM; in the experiment with HepG2 it was more than 100 µM; in experiment [3] it was more than 10000 µg/mL; in the experiment on SW 1116, 2.06 µM. For the same molecule, the Activity in the experiment on Calf thymus DNA [4] is -2 nm. Further, the Kb with Calf thymus DNA [5] was found to be 0.935 ×10⁵ /M.

With `O=C1[C@@H](Oc2ccccc2)[C@@H](c2ccc(Cl)cc2)N1c1ccc(Nc2nc(N3CCOCC3)nc(N3CCOCC3)n2)cc1` (relative stereo), the IC50 in the experiment with MCF7 was more than 100 µM; in the experiment with HEK293 it was more than 100 µM; in the experiment on HepG2, more than 100 µM; in [3], 4800 µg/mL (≈ 7.82 mM); in the experiment on SW 1116 it was more than 100 µM.

For `O=C1[C@@H](Oc2ccccc2)[C@@H](c2cccc([N+](=O)[O-])c2)N1c1ccc(Nc2nc(N3CCOCC3)nc(N3CCOCC3)n2)cc1` (relative stereo), the IC50 is more than 100 µM in the experiment with MCF7; more than 100 µM with HEK293; more than 100 µM in the experiment with HepG2; more than 10000 µg/mL in experiment [3]; 1.98 µM in the experiment on SW 1116. In addition, in the experiment with Calf thymus DNA [4], the Activity is -2 nm. Moreover, in the experiment on Calf thymus DNA [5], the Kb was 0.943 ×10⁴ /M.

`O=C1[C@@H](Oc2ccc(Cl)cc2)[C@@H](c2cccc([N+](=O)[O-])c2)N1c1ccc(Nc2nc(N3CCOCC3)nc(N3CCOCC3)n2)cc1` (relative stereo): the IC50 with MCF7 is more than 100 µM; in the experiment with HEK293, more than 100 µM; in the experiment on HepG2, more than 100 µM; in experiment [3] it was more than 10000 µg/mL; in the experiment with SW 1116, 100 µM.

Take `O=C1[C@@H](Oc2ccc(Cl)cc2Cl)[C@@H](c2ccc([N+](=O)[O-])cc2)N1c1ccc(Nc2nc(N3CCOCC3)nc(N3CCOCC3)n2)cc1` (relative stereo): the IC50 in the experiment on MCF7 is more than 100 µM; in the experiment on HEK293 it was more than 100 µM; with HepG2, more than 100 µM; in experiment [3] it was 5800 µg/mL (≈ 8.36 mM); in the experiment on SW 1116 it was 35.7 µM.

With `O=C1[C@@H](Oc2ccc(Cl)cc2)[C@@H](c2ccc([N+](=O)[O-])cc2)N1c1ccc(Nc2nc(N3CCOCC3)nc(N3CCOCC3)n2)cc1` (relative stereo), the Activity with Calf thymus DNA [6] was -5 nm. Moreover, the IC50 with MCF7 was more than 100 µM; in the experiment on HEK293 it was more than 100 µM; with HepG2 it was more than 100 µM; in experiment [3], more than 10000 µg/mL; in the experiment with SW 1116 it was 4.88 µM. The Kb in the experiment on Calf thymus DNA [5] is 2.6 ×10⁵ /M.

As to `O=C1[C@@H](Oc2ccccc2)[C@@H](c2ccc([N+](=O)[O-])cc2)N1c1ccc(Nc2nc(N3CCOCC3)nc(N3CCOCC3)n2)cc1` (relative stereo), the half-inhibitory concentration (IC50) in the experiment on MCF7 was more than 100 µM; in the experiment with HEK293, more than 100 µM; with HepG2 it was more than 100 µM; in experiment [3], more than 10000 µg/mL; with SW 1116, 17.5 µM.
